Results taken from ChEMBL document CHEMBL1201862, “PubChem BioAssay data set” (2004).
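How tested: cells in 96-well plates exposed to compound for 48 hours at five concentrations. GI50 = concentration required for 50% inhibition of growth.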 Calls of active or inactive are those of the source. Rule as the data show it: active = GI50 up to about 1.1 µM and inactive = higher. Square brackets hold non-standard residues; d marks the D form. Peptide text beside a SMILES is read from it. * marks the point of attachment. X26 = COC1=CC(=O)N(C(=O)[C@@H](O*)C(C)C)[C@H]1Cc1ccccc1; NMeL = CN[C@@H](CC(C)C)C(=O)O; Hexanoyl = CCCCCC(=O)*

Experiments:
Assay in all cases: NCI anticancer screen, dose series, 48 h
SF-539 = system: SF-539
SK-MEL-2 = system: SK-MEL-2
Hs-578T = system: Hs-578T
SN12C = system: SN12C
K562 = system: K562
HCT-15 = system: HCT-15
SF-295 = system: SF-295
IGROV-1 = system: IGROV-1
SR = system: SR
SK-MEL-28 = system: SK-MEL-28
COLO 205 = system: COLO 205
MOLT-4 = system: MOLT-4
NCI-H23 = system: NCI-H23
RPMI-8226 = system: RPMI-8226
MDA-N = system: MDA-N
SK-MEL-5 = system: SK-MEL-5
HOP-92 = system: HOP-92
CCRF-CEM = system: CCRF-CEM
ACHN = system: ACHN
NCI/ADR-RES = system: NCI/ADR-RES

SMILES	GI50 (SF-539)	GI50 (SK-MEL-2)	GI50 (Hs-578T)	GI50 (SN12C)	GI50 (K562)	GI50 (HCT-15)	GI50 (SF-295)	GI50 (IGROV-1)	GI50 (SR)	GI50 (SK-MEL-28)	GI50 (COLO 205)	GI50 (MOLT-4)	GI50 (NCI-H23)	GI50 (RPMI-8226)	GI50 (MDA-N)	GI50 (SK-MEL-5)	GI50 (HOP-92)	GI50 (CCRF-CEM)	GI50 (ACHN)	GI50 (NCI/ADR-RES)
O=C(Nc1ccc([N+](=O)[O-])cc1)Nn1cnnc1	25.7 µM (inactive)	> 100 µM (inactive)	26.1 µM (inactive)	> 10 µM (inactive)	> 100 µM (inactive)	45.6 µM	29 µM (inactive)	80 µM (inactive)	31.6 µM (inactive)	> 100 µM (inactive)	> 100 µM (inactive)	> 100 µM (inactive)	13 µM (inactive)	49.7 µM (inactive)	34 µM (inactive)	> 100 µM (inactive)	> 100 µM (inactive)	> 100 µM (inactive)	> 100 µM (inactive)	–
CSc1nnnc2ccccc12	> 100 µM (inactive)	> 100 µM (inactive)	> 100 µM (inactive)	> 100 µM (inactive)	> 100 µM (inactive)	> 100 µM	> 100 µM (inactive)	> 100 µM (inactive)	–	> 100 µM (inactive)	> 100 µM (inactive)	> 100 µM (inactive)	> 100 µM (inactive)	> 100 µM (inactive)	> 100 µM (inactive)	> 100 µM (inactive)	> 100 µM (inactive)	51.4 µM (inactive)	> 100 µM (inactive)	> 100 µM (inactive)
Cn1cc(C2NC(=O)c3ccccc3N2)c2ccccc21 (stereo not given)	1.86 µM (inactive)	2.02 µM (inactive)	0.649 µM (active)	1.63 µM (inactive)	0.125 µM (active)	0.191 µM	0.305 µM (active)	1.51 µM (inactive)	–	0.643 µM (active)	0.925 µM (active)	0.255 µM (active)	1.31 µM (inactive)	0.249 µM (active)	0.0632 µM (active)	0.182 µM (active)	22.3 µM (inactive)	0.413 µM (active)	1.75 µM (inactive)	0.491 µM (active)
CCN(CC)C(=S)SS(=O)(=O)c1ccc(C)cc1	16.9 µM (inactive)	50.4 µM (inactive)	75.5 µM (inactive)	17.5 µM (inactive)	28.5 µM (inactive)	36.7 µM	52.7 µM (inactive)	–	–	18.5 µM (inactive)	22.3 µM (inactive)	–	42.4 µM (inactive)	–	27.9 µM (inactive)	0.644 µM (active)	–	< 0.01 µM (active)	34.7 µM (inactive)	35.6 µM (inactive)
CCOc1ccccc1/C=C1\NC(=O)N(/C=C2\C(=O)Oc3ccccc3C2=O)C1=O	78.5 µM (inactive)	45.9 µM (inactive)	46.7 µM (inactive)	43.6 µM (inactive)	–	53.8 µM	44.5 µM (inactive)	35.7 µM (inactive)	–	62.4 µM (inactive)	47.4 µM (inactive)	26.7 µM (inactive)	31.3 µM (inactive)	–	42 µM (inactive)	23.9 µM (inactive)	21 µM (inactive)	24.2 µM (inactive)	50.6 µM (inactive)	46 µM (inactive)
N=C(N)SCc1cc(Cl)cc(Cl)c1O	3.58 µM (inactive)	18.2 µM (inactive)	20.4 µM (inactive)	17.4 µM (inactive)	19.8 µM (inactive)	20.1 µM	25.5 µM (inactive)	18.5 µM (inactive)	–	22.6 µM (inactive)	17.7 µM (inactive)	24.4 µM (inactive)	19 µM (inactive)	19.8 µM (inactive)	16.4 µM (inactive)	16.6 µM (inactive)	15.7 µM (inactive)	13.7 µM (inactive)	19.5 µM (inactive)	26.2 µM (inactive)
Cc1ccc2c(c1C)CC1(Cc3c(C)ccc(C)c3C1=O)C2=O (stereo not given)	> 100 µM (inactive)	–	> 100 µM (inactive)	> 100 µM (inactive)	> 100 µM (inactive)	> 100 µM	> 100 µM (inactive)	> 100 µM (inactive)	–	> 100 µM (inactive)	> 100 µM (inactive)	> 100 µM (inactive)	> 100 µM (inactive)	> 100 µM (inactive)	> 100 µM (inactive)	> 100 µM (inactive)	> 100 µM (inactive)	> 100 µM (inactive)	> 100 µM (inactive)	> 100 µM (inactive)
CC1(C)N=C(N)N=C(N)N1c1cccc(OCc2cccc(N)c2)c1	19.9 µM (inactive)	> 100 µM (inactive)	> 100 µM (inactive)	19 µM (inactive)	3.17 µM (inactive)	> 100 µM	> 79.6 µM (inactive)	3.31 µM (inactive)	–	> 100 µM (inactive)	37.8 µM (inactive)	8.02 µM (inactive)	14.2 µM (inactive)	56.1 µM (inactive)	6.1 µM (inactive)	12.4 µM (inactive)	> 49 µM (inactive)	4.85 µM (inactive)	> 100 µM (inactive)	> 100 µM (inactive)
C=C1C(=O)O[C@@H]2[C@@H]3O[C@@H](C[C@@H]13)[C@](C)(O)CC/C=C(\C)CCC[C@@H]2C	10.5 µM (inactive)	13.3 µM (inactive)	17.4 µM (inactive)	12 µM (inactive)	4.66 µM (inactive)	11.6 µM	26.4 µM (inactive)	10.2 µM (inactive)	–	15.8 µM (inactive)	14.7 µM (inactive)	3.35 µM (inactive)	13.3 µM (inactive)	2.82 µM (inactive)	4.75 µM (inactive)	16.4 µM (inactive)	13.2 µM (inactive)	2.86 µM (inactive)	8.91 µM (inactive)	10.6 µM (inactive)
Cc1ccc(OC(=O)N2C/C(=C\c3ccccc3)C(=O)/C(=C/c3ccccc3)C2)cc1	26.4 µM (inactive)	42.6 µM (inactive)	20.9 µM (inactive)	24.8 µM (inactive)	3.94 µM (inactive)	26.3 µM	18.7 µM (inactive)	40.7 µM (inactive)	3.43 µM (inactive)	25.7 µM (inactive)	> 68.7 µM (inactive)	4.07 µM (inactive)	26.4 µM (inactive)	0.403 µM (active)	4.02 µM (inactive)	20.6 µM (inactive)	> 100 µM (inactive)	3.2 µM (inactive)	26.7 µM (inactive)	–
O=C(CBr)c1ccc2cc(Br)c3ccccc3c2c1	20.9 µM (inactive)	20.6 µM (inactive)	25.8 µM (inactive)	–	26.7 µM (inactive)	36.1 µM	24.4 µM (inactive)	29.6 µM (inactive)	12.1 µM (inactive)	25.1 µM (inactive)	24.1 µM (inactive)	4.25 µM (inactive)	14.7 µM (inactive)	20.3 µM (inactive)	–	14.3 µM (inactive)	20.9 µM (inactive)	33.3 µM (inactive)	52.1 µM (inactive)	36.7 µM (inactive)
C=C1C(=O)OC2C3C(=C)[C@@H](OC(C)=O)CC3C(C)=CC(OC(=O)C(C)(OC(C)=O)C(C)OC(C)=O)[C@@H]12 (stereo not given in full)	17.4 µM (inactive)	12.3 µM (inactive)	23.4 µM (inactive)	15.7 µM (inactive)	7.29 µM (inactive)	12.8 µM	61.2 µM (inactive)	18.5 µM (inactive)	22.2 µM (inactive)	15.1 µM (inactive)	14.8 µM (inactive)	6.56 µM (inactive)	18.6 µM (inactive)	6.55 µM (inactive)	14.9 µM (inactive)	12.6 µM (inactive)	–	3.25 µM (inactive)	13.7 µM (inactive)	–
[O-][Cl+3]([O-])([O-])[O-].[O-][Cl+3]([O-])([O-])[O-].c1ccn2c(N3CCCC3)[n+]3c4ccccc4n4c(N5CCCC5)[n+]5ccccc5c4c3c2c1	57.9 µM (inactive)	39.2 µM (inactive)	33.4 µM (inactive)	8 µM (inactive)	35.8 µM (inactive)	> 100 µM	46.3 µM (inactive)	42.7 µM (inactive)	38.1 µM (inactive)	> 100 µM (inactive)	20 µM (inactive)	> 100 µM (inactive)	54.5 µM (inactive)	98.6 µM (inactive)	–	22.2 µM (inactive)	73.1 µM (inactive)	> 100 µM (inactive)	> 100 µM (inactive)	> 100 µM (inactive)
c1nc(OCC2CCCCC2)c2nc[nH]c2n1	36.1 µM (inactive)	40.6 µM (inactive)	> 100 µM (inactive)	57.8 µM (inactive)	99.8 µM (inactive)	46.3 µM	50.9 µM (inactive)	46.5 µM (inactive)	–	> 100 µM (inactive)	32 µM (inactive)	31.6 µM (inactive)	45.3 µM (inactive)	15.6 µM (inactive)	28.2 µM (inactive)	26.1 µM (inactive)	66.7 µM (inactive)	> 100 µM (inactive)	10.1 µM (inactive)	61.4 µM (inactive)
CCCCCC(=O)N[C@H](C(=O)N[C@H](C(=O)N(C)[C@@H](CC(C)C)C(=O)N1CCC[C@H]1C(=O)N1CCC[C@H]1C(=O)O[C@H](C(=O)N1C(=O)C=C(OC)[C@@H]1Cc1ccccc1)C(C)C)C(C)C)C(C)C (Hexanoyl-VV[NMeL]PP-X26)	> 59.2 µM (inactive)	> 100 µM (inactive)	> 88.3 µM (inactive)	35.6 µM (inactive)	10.3 µM (inactive)	> 43.4 µM	> 100 µM (inactive)	> 44.2 µM (inactive)	–	> 100 µM (inactive)	32.5 µM (inactive)	1.9 µM (inactive)	21.2 µM (inactive)	2.74 µM (inactive)	28.3 µM (inactive)	–	36.1 µM (inactive)	42.9 µM (inactive)	> 100 µM (inactive)	> 100 µM (inactive)
